# Experiments:
# pgp-5::gfp [1] = test: pgp-5::gfp induction in germline translation-defective eft-3(q145);pgp-5::gfp strain (RNAi, bile acid rescue, microbes); type: in vivo, C. elegans; settings: bile acids at 100 uM
# Excerpt: Secondary screens were similarly done on the eft-3(q145):pgp-5::gfp strain.
# To explore the types of lipids that the dhs-28. daf-22 pathway generates to regulate the induction of pgp-5::gfp expression in translation-defective animals, we tested whether defects in CAs-28 or daf-22-mediated lipid/bile acid biosynthesis could be rescued for pgp-5::gfp induction by addition of purified mammalian bile acids (FIG. 9B). […] These bile acids preparations are 95% pure.
# [2] = system: pgp-6 transcriptional GFP fusion gene; test: Transcriptional GFP fusion gene induction: pgp-6; type: in vivo, C. elegans; settings: n = 20
# Protocol: (§1) G418 (GoldBio) or hygromycin (GoldBio) was diluted in M9 to the desired concentration and added onto preseeded OP50 E. coli bacteria containing NGM plates. The plates were dried uncovered in the hood for at least 1 hour before seeding the worms. For the drug experiments, synchronized L1-stage animals were dropped onto the drug containing plates and scored later. For drug resistance assays synchronized L1 larval stage animals of the appropriate genotype were fed with either control RNAi or with RNAi clones targeting bile acid biosynthetic pathways until they reach day two of adulthood. Subsequently, the RNAi-treated animals were egg-prepped to obtain synchronized L1 larvae. ˜100 L1 larvae were added to the plates containing G418. 100 nM of Δ^4-Dafachronic Acid or (25S)-Δ^7-Dafachronic Acid from Cayman Chemical were used.
# (§2) Nematodes were mounted onto agar pads and images were taken using a Zeiss AXIO Imager Z1 microscope fitted with a Zeiss AxioCam HRm camera and Axiovision 4.6 (Zeiss) software. Fluorescent images were converted to 16-bit images, thresholded and quantified using ImageJ. Student's t test was used determine statistical significance. […]
# [3] = system: abch-1 transcriptional GFP fusion gene; test: Transcriptional GFP fusion gene induction: abch-1; type: in vivo, C. elegans; settings: n = 20
# Protocol: as §1, §2
# [4] = system: dhs-9 transcriptional GFP fusion gene; test: Transcriptional GFP fusion gene induction: dhs-9; type: in vivo, C. elegans; settings: n = 20
# Protocol: as §1, §2
# [5] = system: ugt-8 transcriptional GFP fusion gene; test: Transcriptional GFP fusion gene induction: ugt-8; type: in vivo, C. elegans; settings: n = 20
# Protocol: as §1, §2
# [6] = system: pmp-4 transcriptional GFP fusion gene; test: Transcriptional GFP fusion gene induction: pmp-4; type: in vivo, C. elegans; settings: n = 20
# [7] = system: haf-7 transcriptional GFP fusion gene; test: Transcriptional GFP fusion gene induction: haf-7; type: in vivo, C. elegans; settings: n = 20
# Protocol: as §1, §2
# [8] = system: mrp-2 transcriptional GFP fusion gene; test: Transcriptional GFP fusion gene induction: mrp-2; type: in vivo, C. elegans; settings: n = 20
# Protocol: as §1, §2
# [9] = system: dhs-19 transcriptional GFP fusion gene; test: Transcriptional GFP fusion gene induction: dhs-19; type: in vivo, C. elegans; settings: n = 20
# Protocol: as §1, §2
# [10] = system: ugt-22 transcriptional GFP fusion gene; test: Transcriptional GFP fusion gene induction: ugt-22; type: in vivo, C. elegans; settings: n = 20
# Protocol: as §1, §2
# [11] = system: cyp-31a3 transcriptional GFP fusion gene; type: in vivo, C. elegans; settings: n = 20
# Protocol: as §1
# (§3) Nematodes were mounted onto agar pads and images were taken using a Zeiss AXIO Imager Z1 microscope fitted with a Zeiss AxioCam HRm camera and Axiovision 4.6 (Zeiss) software. Fluorescent images were converted to 16-bit images, thresholded and quantified using ImageJ. Student's t test was used determine statistical significance.
# (§4) Inactivation of C. elegans translation components by feeding the animals E. coli expressing specific dsRNAs targeting translation factor mRNAs induces the expression of xenobiotic detoxification genes, bacterial pathogen response genes, and aversion behavior2-4 (FIG. 1A-C; Table 1, 2 and 3). Toxins, such as the eukaryotic translation inhibitors G418 produced by the bacteria Micromonospora rhodorangea5 or hygromycin, produced by the soil bacteria Streptomyces hygroscopicus6 also induce these responses.
# (§5) Detoxification responses in animals include, cytochrome P450's (CYPs), UDP-glucuronosyltransferases (UGTs), glutathione S-transferases (GSTs), and p-glycoprotein transporters (PGPs) (FIGS. 1A & 1C; FIG. 6 A-B; Table 1, 2 and 3). We chose a pgp-5::gfp fusion gene for assays of xenobiotic detoxification induction in response to G418 or hygromycin or ribosomal assaults via RNAi (FIGS. 1A & C; FIG. 6 A-B; Table 1, 2 and 3) because of the robust response of this reporter gene and validation of this gene induction from microarray gene expression analysis in response to translational inhibition by toxins or RNAi4.
# [12] = system: cyp-25a2 transcriptional GFP fusion gene; type: in vivo, C. elegans; settings: n = 20
# Protocol: as §1, §3, §4, §5
# [13] = system: cyp-34A9 transcriptional GFP fusion gene; type: in vivo, C. elegans; settings: n = 20
# Protocol: as §1, §3, §4, §5
# [14] = system: cyp-37A1 transcriptional GFP fusion gene; type: in vivo, C. elegans; settings: n = 20
# Protocol: as §1, §3, §4, §5
# [15] = system: cyp-14A3 transcriptional GFP fusion gene; type: in vivo, C. elegans; settings: n = 20
# Protocol: as §1, §3, §4, §5
# [16] = system: cyp-35B1 transcriptional GFP fusion gene; type: in vivo, C. elegans; settings: n = 20
# Protocol: as §1, §3, §4, §5
# [17] = system: cyp-13a7 transcriptional GFP fusion gene; type: in vivo, C. elegans; settings: n = 20
# Protocol: as §1, §3, §4, §5
# [18] = system: ugt-58 transcriptional GFP fusion gene; test: Transcriptional GFP fusion gene induction: ugt-58; type: in vivo, C. elegans; settings: n = 20
# Protocol: as §1, §2
# [19] = system: pgp-3 transcriptional GFP fusion gene; test: Transcriptional GFP fusion gene induction: pgp-3; type: in vivo, C. elegans; settings: n = 20
# Protocol: as §1, §2
# C. elegans [20] = test: Drug resistance assay (G418 or hygromycin) after RNAi; type: in vivo; settings: control RNAi treated wildtype animals; 0.2 mg/ml G418
# Protocol: as §1
# [21] = system: pgp-9 transcriptional GFP fusion gene; test: Transcriptional GFP fusion gene induction: pgp-9; type: in vivo, C. elegans; settings: n = 20
# Protocol: as §1, §2
# [22] = system: pgp-4 transcriptional GFP fusion gene; test: Transcriptional GFP fusion gene induction: pgp-4; type: in vivo, C. elegans; settings: n = 20
# pgp-5::gfp [23] = test: pgp-5::gfp induction in animals without germline translation mutation (toxin, RNAi, bile acids, lipid extracts); type: in vivo, C. elegans; settings: pgp-5 transcriptional GFP fusion gene; n = 20
# Protocol: as §1
# Nematodes were mounted onto agar pads and images were taken using a Zeiss AXIO Imager Z1 microscope fitted with a Zeiss AxioCam HRm camera and Axiovision 4.6 (Zeiss) software. Fluorescent images were converted to 16-bit images, thresholded and quantified using ImageJ. […]
# RNAi bacteria expressing the dsRNA corresponding to each worm gene were grown in LB media with 25 μg/ml carbenicillin overnight and seeded onto RNAi agar plates containing 1 mM IPTG. […] In the primary screen, the plates were screened visually for changes in GFP fluorescence and worm developmental defects. […]
# [24] = system: ugt-61 transcriptional GFP fusion gene; test: Transcriptional GFP fusion gene induction: ugt-61; type: in vivo, C. elegans; settings: n = 20
# Protocol: as §1, §2
# C. elegans [25] = test: Effect of microbes on C. elegans growth; type: in vivo; settings: C. elegans grown on the microbe
# Protocol: 16S ribosomal sequence was amplified using specific primers and sequenced to identify the microbes. BHI media as well as plates was used for culturing and testing the effect of Enterococcus faecalis and E. faecium on worms. For Saccharomyces boulardi, YPD media was used for growing the yeast and a concentrated culture was added to SK media. For Lactobacillus spp, Lactobacilli broth was used for growing and then a concentrated culture was added to SK media. SK media was used for all the other microbes.
# Many of the bacterial strains allowed normal growth of C. elegans, but some caused developmental arrest, perhaps due to toxins or virulence factors that disrupt essential C. elegans processes.
molecule,measurement,setting,value
C[C@H](CCC(=O)O)[C@H]1CC[C@H]2[C@@H]3[C@H](O)C[C@@H]4C[C@H](O)CC[C@]4(C)[C@H]3CC[C@]12C [chenodeoxycholic acid],rescue of the defect in pgp-5::gfp induction caused by daf-22 or dhs-28 gene inactivations,pgp-5::gfp [1],rescued the defect in induction of pgp-5::gfp
CN[C@@H]1[C@@H](O)[C@@H](O[C@@H]2[C@@H](O)[C@H](O[C@H]3O[C@H]([C@@H](C)O)[C@@H](O)[C@H](O)[C@H]3N)[C@@H](N)C[C@H]2N)OC[C@]1(C)O [G418],% Animals with gfp induction,[2],100 (n = 20) %
same,% Animals with gfp induction,[3],0 (n = 20) %
same,% Animals with gfp induction,[4],0 (n = 20) %
same,% Animals with gfp induction,[5],0 (n = 20) %
same,% Animals with gfp induction,[6],65 (n = 20) %
same,% Animals with gfp induction,[7],0 (n = 20) %
same,% Animals with gfp induction,[8],80 (n = 20) %
same,% Animals with gfp induction,[9],0 (n = 20) %
same,% Animals with gfp induction,[10],0 (n = 20) %
same,% Animals with gfp induction,[11],80 (n = 20) %
same,% Animals with gfp induction,[12],0 (n = 20) %
same,% Animals with gfp induction,[13],0 (n = 20) %
same,% Animals with gfp induction,[14],0 (n = 20) %
same,% Animals with gfp induction,[15],0 (n = 20) %
same,% Animals with gfp induction,[16],0 (n = 20) %
same,% Animals with gfp induction,[17],0 (n = 20) %
same,% Animals with gfp induction,[18],0 (n = 20) %
same,% Animals with gfp induction,[19],0 (n = 20) %
same,animals that grew to adulthood,C. elegans [20],> 40%
same,% Animals with gfp induction,[21],100 (n = 20) %
same,% Animals with gfp induction,[22],0 (n = 20) %
same,% Animals with gfp induction,pgp-5::gfp [23],100 (n = 20) %
same,% Animals with gfp induction,[24],0 (n = 20) %
CC(CCC(=O)NCC(=O)O)C1CCC2C3C(O)CC4CC(O)CCC4(C)C3CCC12C (stereo not drawn) [glycochenodeoxycholic acid],rescue of the defect in pgp-5::gfp induction caused by daf-22 or dhs-28 gene inactivations,pgp-5::gfp [1],rescued the defect in induction of pgp-5::gfp
Lactobacillus plantarum,% Animals that reach adulthood,C. elegans [25],0%
same,"developmental outcome on the microbe (arrest stage, slow growth, normal)",C. elegans [25],slow growth
